The target of series [1] is T1, YgjD–YeaZ (Escherichia coli, UniProt P05852+P76256).
T1 construct: gene tsaD; 1:1 heterodimer of full-length YgjD (337 residues) and YeaZ (231 residues), each C-terminally 6xHis tagged, expressed in E. coli BL21(DE3); nucleotide sites in the YgjD active site and at the YgjD-YeaZ interface
The experiment in a line: crystal structure […] A. Type of series: binding. As to conditions: cocrystallised with ATP and MgCl2; two ADP: YgjD active site (Mg2+, Fe) and YgjD-YeaZ interface; no heat signal by ITC. (In general: ITC needs no label: the signal is the heat of the interaction.)

The target of series [2] is T2, YjeE (Escherichia coli, UniProt P0AF67, W109A).
T2 construct: gene tsaE; full length, C-terminal Strep II tag, expressed in E. coli BL21(DE3) from pET28a; monomer-dimer equilibrium
The experiment in a line: ITC. Type of series: binding.

Series [3] addresses T3, YjeE (Escherichia coli, UniProt P0AF67).
T3 construct: gene tsaE; full length, C-terminal Strep II tag, expressed in E. coli BL21(DE3) from pET28a; monomer-dimer equilibrium
The series is described as follows: ITC. Type of series: binding.

The target in series [4] is T1, YgjD–YeaZ. The experiment in a line: ITC. Type of series: binding.
In a further series the target is T4, YgjD (Escherichia coli, UniProt P05852).
T4 construct: gene tsaD; full length (337 residues), C-terminal 6xHis tag, expressed in E. coli BL21(DE3) from pET9a; homodimer in solution
The series is described as follows: ITC. Type of series: binding.

Series [5] deals with T5, YgjD–YeaZ (Escherichia coli, UniProt P05852+P76256, P05852:V85E).
T5 construct: gene tsaD; 1:1 heterodimer of full-length YgjD (337 residues) and YeaZ (231 residues), each C-terminally 6xHis tagged, expressed in E. coli BL21(DE3); nucleotide sites in the YgjD active site and at the YgjD-YeaZ interface
The series is described as follows: crystal structure. As to conditions: crystallised in presence of ATP; no nucleotide at the interface. Type of series: binding.

Series [6] addresses T6, YjeE (Escherichia coli, UniProt P0AF67, Y82A).
T6 construct: gene tsaE; full length, C-terminal Strep II tag, expressed in E. coli BL21(DE3) from pET28a; monomer-dimer equilibrium
The series is described as follows: ITC. Type of series: binding.

Series [7] has as its target YeaZ (Salmonella typhimurium) (UniProt Q7CQE0). The conditions noted are these: cited from earlier work.
The subject of series [8] is Nc1ncnc2c1ncn2[C@@H]1O[C@H](COP(=O)(O)OP(=O)(O)OP(=O)(O)O)[C@@H](O)[C@H]1O. The series is described as follows: purified protein. The conditions noted are these: 50 mM HEPES pH 7.5, 20 °C, YjeE at 2 molar equivalents.
Series [9] concerns the molecule itself. The series is described as follows: SEC; HiLoad 16/60 Superdex 75 pg; single proteins and equimolar mixture.

The term Kd denotes a measure of binding affinity in units of concentration. Consider `Nc1ncnc2c1ncn2[C@@H]1O[C@H](COP(=O)(O)OP(=O)(O)O)[C@@H](O)[C@H]1O` [ADP], for which the “crystal structure 2.3 A” value on YgjD–YeaZ [1] is listed as “An ADP molecule could unequivocally fit the density”. Further, the values for the Kd on YjeE [2] and on YjeE [3] were 4.83 ± 0.022 µM and 6.54 ± 0.053 µM, respectively. As to `Nc1ncnc2c1ncn2[C@@H]1O[C@H](COP(=O)(O)CP(=O)(O)OP(=O)(O)O)[C@@H](O)[C@H]1O` [AMPCPP], the Kd at YgjD–YeaZ [4] worked out at 0.7 ± 0.011 µM; at YgjD, 1.62 ± 0.088 µM. For `Nc1ncnc2c1ncn2[C@@H]1O[C@H](COP(=O)(O)OP(=O)(O)OP(=O)(O)O)[C@@H](O)[C@H]1O` [ATP], at YgjD–YeaZ [5], the crystal structure result was “YgjD^V85E(ATP)–YeaZ crystal structures under accession number”. As to `Nc1ncnc2c1ncn2[C@@H]1O[C@H](CO[P@](=O)(O)O[P@](=O)(O)O[P@@](=O)(O)S)[C@@H](O)[C@H]1O` [ATPγS], the figures for the Kd on YjeE [6] and at YjeE [3] were 8.9 ± 0.013 µM and 20.4 ± 1.32 µM, respectively. With YgjD (from UniProt P40731), the Kd in series [7] is 0.3 µM. What is called Km is the substrate concentration at which the rate is half of its maximum. Usually kcat stands for the number of substrate molecules converted per active site and unit of time at saturation. On to “YgjD–YeaZ–2xYjeE complex (Escherichia coli K-12)”, for which, in series [8], the Km was found to be 644 µM and the kcat is 0.4 s⁻¹.

B1: YgjD (TsaD) (enzyme, Escherichia coli K-12, UniProt P05852 1-337, looked up)
chain: MRVLGIETSCDETGIAIYDDEKGLLANQLYSQVKLHADYGGVVPELASRDHVRKTVPLIQAALKESGLTAKDIDAVAYTAGPGLVGALLVGATVGRSLAFAWDVPAIPVHHMEGHLLAPMLEDNPPEFPFVALLVSGGHTQLISVTGIGQYELLGESIDDAAGEAFDKTAKLLGLDYPGGPLLSKMAAQGTAGRFVFPRPMTDRPGLDFSFSGLKTFAANTIRDNGTDDQTRADIARAFEDAVVDTLMIKCKRALDQTGFKRLVMAGGVSANRTLRAKLAEMMKKRRGEVFYARPEFCTDNGAMIAYAGMVRFKAGATADLGVSVRPRWPLAELPAA
notes: YgjD (TsaD), Escherichia coli K-12, 337 residues; gene amplified from genomic DNA, cloned in pET9a; Alone it is a homodimer by gel filtration and SAXS; also called Ec–YgjD; source: E. coli BL21(DE3), purified (details in the Supplementary Materials)
In general, stoichiometry N refers to the number of molecules, sites or subunits per partner or assembly. Regarding B1, the “stoichiometry N” value in series [9] is 2.

These data come from article PMC4330362, “The ATP-mediated formation of the YgjD–YeaZ–YjeE complex is required for the biosynthesis of tRNA t^6A in Escherichia coli” (Nucleic Acids Research, 2015).
